Source: ChEMBL document CHEMBL3991601, “The target landscape of clinical kinase drugs” (Science, 2017)
Active and inactive are the calls of the source. Rule as the data show it, for most assays here: actives have a measured Kd and inactives only a lower limit.

Columns and labels:
[1] = biological target: T1, Probable ATP-dependent RNA helicase DDX6 (Homo sapiens, UniProt P26196)
T1 sequence (P26196 whole entry): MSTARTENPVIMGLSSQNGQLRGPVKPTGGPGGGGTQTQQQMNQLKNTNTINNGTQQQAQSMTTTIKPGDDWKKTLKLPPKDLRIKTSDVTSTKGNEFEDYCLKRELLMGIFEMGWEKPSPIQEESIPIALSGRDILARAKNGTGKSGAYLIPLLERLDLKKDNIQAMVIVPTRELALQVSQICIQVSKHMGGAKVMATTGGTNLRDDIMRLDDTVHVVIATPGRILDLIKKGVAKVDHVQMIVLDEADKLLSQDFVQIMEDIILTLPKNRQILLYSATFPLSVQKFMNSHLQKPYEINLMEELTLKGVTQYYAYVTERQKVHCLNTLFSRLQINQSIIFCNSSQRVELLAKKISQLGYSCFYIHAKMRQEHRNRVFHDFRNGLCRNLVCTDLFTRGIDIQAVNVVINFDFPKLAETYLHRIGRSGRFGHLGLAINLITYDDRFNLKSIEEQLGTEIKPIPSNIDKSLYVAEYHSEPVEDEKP

[2] = biological target: T2, Breakpoint cluster region protein (Homo sapiens, UniProt P11274)
T2 sequence (P11274 whole entry): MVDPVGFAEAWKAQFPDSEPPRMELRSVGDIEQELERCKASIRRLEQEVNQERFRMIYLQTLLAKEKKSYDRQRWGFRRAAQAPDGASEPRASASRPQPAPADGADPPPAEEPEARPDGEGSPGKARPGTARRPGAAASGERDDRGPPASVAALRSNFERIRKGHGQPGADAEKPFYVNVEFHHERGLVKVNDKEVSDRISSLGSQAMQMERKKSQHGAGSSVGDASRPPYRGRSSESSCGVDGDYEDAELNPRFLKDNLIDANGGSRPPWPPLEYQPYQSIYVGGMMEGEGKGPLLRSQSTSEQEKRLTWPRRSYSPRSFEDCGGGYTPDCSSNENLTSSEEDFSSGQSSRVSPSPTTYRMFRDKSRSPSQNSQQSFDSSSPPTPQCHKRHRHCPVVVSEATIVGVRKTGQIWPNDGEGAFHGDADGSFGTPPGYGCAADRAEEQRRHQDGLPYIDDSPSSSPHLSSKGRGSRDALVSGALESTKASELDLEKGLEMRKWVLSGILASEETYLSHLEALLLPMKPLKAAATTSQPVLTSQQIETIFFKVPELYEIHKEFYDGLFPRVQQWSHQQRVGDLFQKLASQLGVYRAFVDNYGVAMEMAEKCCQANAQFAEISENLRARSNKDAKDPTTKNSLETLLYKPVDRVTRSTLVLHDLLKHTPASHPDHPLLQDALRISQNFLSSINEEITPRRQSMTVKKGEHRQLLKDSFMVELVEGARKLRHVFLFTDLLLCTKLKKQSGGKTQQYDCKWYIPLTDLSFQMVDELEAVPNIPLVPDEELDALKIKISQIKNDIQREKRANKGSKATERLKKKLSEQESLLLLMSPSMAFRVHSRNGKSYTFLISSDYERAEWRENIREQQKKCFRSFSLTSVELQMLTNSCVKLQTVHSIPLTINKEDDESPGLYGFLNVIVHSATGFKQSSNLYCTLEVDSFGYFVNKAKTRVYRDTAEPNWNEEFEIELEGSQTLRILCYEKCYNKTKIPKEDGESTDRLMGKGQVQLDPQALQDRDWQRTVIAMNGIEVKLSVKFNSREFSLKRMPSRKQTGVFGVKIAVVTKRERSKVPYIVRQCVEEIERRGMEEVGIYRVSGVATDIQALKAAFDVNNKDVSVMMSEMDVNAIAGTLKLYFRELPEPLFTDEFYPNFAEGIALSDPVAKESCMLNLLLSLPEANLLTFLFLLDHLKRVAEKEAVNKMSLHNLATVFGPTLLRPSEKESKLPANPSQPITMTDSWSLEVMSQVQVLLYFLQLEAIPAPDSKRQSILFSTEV

Myosin-14 = Myosin-14 (Homo sapiens, UniProt Q7Z406)
[3] = biological target: Cyclin-dependent kinase 6 (Homo sapiens, UniProt Q00534)
[4] = biological target: Serine/threonine-protein kinase SIK2 (Homo sapiens, UniProt Q9H0K1)
[5] = biological target: Dual specificity protein kinase CLK1 (Homo sapiens, UniProt P49759)
[6] = biological target: T3, Non-receptor tyrosine-protein kinase TNK1 (Homo sapiens, UniProt Q13470)
T3 sequence (Q13470 whole entry): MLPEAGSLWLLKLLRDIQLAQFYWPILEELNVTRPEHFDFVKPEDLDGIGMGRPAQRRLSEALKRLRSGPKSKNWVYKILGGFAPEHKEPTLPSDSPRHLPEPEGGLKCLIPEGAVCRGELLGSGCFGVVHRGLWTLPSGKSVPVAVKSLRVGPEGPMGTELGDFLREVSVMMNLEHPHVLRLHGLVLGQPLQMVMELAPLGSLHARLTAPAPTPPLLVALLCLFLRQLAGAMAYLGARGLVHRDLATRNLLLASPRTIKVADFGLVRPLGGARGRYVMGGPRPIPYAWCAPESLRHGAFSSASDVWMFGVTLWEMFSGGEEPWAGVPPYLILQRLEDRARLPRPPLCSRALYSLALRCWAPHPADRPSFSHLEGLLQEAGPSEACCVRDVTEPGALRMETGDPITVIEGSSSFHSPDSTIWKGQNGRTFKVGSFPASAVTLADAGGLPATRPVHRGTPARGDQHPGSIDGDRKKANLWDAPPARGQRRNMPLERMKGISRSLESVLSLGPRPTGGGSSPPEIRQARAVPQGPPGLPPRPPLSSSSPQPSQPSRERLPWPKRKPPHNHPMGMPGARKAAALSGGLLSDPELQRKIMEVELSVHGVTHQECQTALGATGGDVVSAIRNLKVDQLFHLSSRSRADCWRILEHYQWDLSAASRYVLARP

[7] = biological target: Serine/threonine-protein kinase 26 (Homo sapiens, UniProt Q9P289)
Also: in the data inactive means no Kd found up to 30 µM.

Chain of Myosin-14 (Q7Z406 whole entry): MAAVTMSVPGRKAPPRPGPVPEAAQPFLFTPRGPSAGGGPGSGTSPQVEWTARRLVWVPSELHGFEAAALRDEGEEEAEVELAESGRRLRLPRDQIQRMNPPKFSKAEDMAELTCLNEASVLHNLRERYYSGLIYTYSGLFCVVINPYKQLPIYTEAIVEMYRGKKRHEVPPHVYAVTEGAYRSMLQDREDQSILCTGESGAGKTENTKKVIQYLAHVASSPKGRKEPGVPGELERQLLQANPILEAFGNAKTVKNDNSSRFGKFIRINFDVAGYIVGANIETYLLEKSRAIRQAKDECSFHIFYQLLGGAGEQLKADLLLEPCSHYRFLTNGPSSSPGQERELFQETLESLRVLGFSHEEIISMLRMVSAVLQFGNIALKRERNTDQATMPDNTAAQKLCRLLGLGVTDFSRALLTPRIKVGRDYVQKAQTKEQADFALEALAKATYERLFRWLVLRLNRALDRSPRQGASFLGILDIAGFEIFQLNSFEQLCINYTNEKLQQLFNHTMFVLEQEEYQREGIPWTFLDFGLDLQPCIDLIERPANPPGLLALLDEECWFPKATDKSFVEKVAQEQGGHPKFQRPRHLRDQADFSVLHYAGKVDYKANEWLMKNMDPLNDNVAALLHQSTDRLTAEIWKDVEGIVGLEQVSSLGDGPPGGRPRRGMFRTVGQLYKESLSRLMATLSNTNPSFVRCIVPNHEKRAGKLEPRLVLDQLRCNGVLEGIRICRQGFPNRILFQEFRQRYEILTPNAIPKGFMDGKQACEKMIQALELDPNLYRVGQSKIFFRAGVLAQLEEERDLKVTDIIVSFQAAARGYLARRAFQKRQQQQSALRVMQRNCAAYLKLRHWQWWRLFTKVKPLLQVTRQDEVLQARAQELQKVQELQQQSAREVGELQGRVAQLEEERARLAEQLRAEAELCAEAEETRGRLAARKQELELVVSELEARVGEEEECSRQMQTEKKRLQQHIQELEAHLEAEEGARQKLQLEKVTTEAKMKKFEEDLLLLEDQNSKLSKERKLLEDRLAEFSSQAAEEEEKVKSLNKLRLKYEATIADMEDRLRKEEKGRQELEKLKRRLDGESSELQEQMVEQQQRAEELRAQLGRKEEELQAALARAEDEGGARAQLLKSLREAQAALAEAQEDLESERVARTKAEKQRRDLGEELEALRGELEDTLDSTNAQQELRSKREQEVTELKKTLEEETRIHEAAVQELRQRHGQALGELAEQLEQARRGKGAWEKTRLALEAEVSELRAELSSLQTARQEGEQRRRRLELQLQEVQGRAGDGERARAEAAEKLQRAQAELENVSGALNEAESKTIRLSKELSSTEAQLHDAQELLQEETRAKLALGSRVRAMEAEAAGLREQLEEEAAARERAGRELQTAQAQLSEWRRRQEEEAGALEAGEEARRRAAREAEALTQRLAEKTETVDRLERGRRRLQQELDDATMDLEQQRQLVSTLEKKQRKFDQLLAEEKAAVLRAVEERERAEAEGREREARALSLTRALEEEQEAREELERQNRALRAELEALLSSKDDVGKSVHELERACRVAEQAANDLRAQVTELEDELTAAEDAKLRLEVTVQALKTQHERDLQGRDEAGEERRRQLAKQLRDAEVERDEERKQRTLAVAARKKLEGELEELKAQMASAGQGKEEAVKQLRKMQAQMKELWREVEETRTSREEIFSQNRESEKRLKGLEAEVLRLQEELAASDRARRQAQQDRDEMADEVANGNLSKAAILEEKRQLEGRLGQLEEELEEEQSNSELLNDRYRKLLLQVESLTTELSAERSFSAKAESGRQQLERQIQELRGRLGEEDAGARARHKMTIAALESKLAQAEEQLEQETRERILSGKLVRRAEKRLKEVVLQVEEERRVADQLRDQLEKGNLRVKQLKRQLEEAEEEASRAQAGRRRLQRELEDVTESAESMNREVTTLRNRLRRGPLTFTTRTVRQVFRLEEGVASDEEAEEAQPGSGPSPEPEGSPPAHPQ
Chain of Dual specificity protein kinase CLK1 (P49759 whole entry): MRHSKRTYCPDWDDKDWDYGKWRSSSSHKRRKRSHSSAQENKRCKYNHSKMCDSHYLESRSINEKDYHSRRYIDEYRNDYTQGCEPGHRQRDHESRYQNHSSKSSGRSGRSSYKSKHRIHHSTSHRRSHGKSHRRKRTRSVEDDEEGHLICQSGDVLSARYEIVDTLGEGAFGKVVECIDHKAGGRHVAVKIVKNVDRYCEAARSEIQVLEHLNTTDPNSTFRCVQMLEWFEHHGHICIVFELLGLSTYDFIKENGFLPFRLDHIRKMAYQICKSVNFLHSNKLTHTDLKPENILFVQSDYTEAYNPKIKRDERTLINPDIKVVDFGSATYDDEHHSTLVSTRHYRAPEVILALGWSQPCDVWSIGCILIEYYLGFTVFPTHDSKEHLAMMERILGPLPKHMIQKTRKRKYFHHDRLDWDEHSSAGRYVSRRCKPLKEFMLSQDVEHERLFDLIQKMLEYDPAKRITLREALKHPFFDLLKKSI
Chain of Cyclin-dependent kinase 6 (Q00534 whole entry): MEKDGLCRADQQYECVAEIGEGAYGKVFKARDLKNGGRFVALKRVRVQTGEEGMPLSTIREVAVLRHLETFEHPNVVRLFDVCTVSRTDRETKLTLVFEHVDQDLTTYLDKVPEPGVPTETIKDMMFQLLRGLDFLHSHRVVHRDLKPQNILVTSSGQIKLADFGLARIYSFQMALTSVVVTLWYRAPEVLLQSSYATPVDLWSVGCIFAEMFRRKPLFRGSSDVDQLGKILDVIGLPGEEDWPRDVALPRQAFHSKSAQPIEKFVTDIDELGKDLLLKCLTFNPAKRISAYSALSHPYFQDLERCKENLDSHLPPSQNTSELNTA
Chain of Serine/threonine-protein kinase SIK2 (Q9H0K1 whole entry): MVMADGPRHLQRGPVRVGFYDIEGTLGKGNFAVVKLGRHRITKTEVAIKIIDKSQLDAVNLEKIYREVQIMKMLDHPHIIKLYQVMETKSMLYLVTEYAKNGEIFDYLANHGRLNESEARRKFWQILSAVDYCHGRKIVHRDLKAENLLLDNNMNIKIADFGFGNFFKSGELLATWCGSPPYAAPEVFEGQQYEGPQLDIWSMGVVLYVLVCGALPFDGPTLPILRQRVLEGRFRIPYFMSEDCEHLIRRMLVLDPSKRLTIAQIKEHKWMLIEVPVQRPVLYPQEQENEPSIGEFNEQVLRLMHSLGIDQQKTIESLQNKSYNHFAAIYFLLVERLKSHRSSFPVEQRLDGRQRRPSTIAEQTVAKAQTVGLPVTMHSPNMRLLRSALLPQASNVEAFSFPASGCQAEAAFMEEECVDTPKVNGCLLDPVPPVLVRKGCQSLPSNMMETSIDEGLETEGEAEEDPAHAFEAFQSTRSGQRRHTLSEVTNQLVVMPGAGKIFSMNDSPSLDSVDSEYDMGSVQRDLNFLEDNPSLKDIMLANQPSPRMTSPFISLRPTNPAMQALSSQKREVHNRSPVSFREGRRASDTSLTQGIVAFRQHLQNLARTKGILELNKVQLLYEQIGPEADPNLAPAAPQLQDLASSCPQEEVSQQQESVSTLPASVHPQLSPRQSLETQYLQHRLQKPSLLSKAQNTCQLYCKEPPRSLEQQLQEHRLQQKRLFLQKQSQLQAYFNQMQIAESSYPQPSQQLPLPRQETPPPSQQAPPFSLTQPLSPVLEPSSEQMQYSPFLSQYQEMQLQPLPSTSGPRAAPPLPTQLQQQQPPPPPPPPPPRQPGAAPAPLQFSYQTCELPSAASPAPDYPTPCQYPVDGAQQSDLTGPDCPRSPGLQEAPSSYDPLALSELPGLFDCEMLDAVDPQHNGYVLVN
Chain of Serine/threonine-protein kinase 26 (Q9P289 whole entry): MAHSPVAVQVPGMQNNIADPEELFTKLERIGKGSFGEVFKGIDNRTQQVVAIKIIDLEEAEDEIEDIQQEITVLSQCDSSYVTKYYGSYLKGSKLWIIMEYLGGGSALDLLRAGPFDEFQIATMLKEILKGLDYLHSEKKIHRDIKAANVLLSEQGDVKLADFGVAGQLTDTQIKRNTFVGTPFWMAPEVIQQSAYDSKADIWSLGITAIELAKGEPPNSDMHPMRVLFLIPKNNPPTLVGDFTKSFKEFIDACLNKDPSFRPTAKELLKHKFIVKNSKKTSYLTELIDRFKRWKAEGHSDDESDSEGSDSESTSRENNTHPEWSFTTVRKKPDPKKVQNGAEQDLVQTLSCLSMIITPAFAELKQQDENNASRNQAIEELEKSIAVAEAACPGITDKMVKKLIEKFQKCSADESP

Structure (SMILES) | Kd [1] | Kd [2] | Kd (Myosin-14) | Kd [3] | Kd [4] | Kd [5] | Kd [6] | Kd [7]
NC(=O)c1ccc(N(C(N)=O)c2c(F)cccc2F)nc1-c1ccc(F)cc1F [VX-702] | > 30 µM (inactive) | > 30 µM (inactive) | > 30 µM (inactive) | > 30 µM (inactive) | > 30 µM (inactive) | > 30 µM (inactive) | > 30 µM (inactive) | > 30 µM (inactive)
Cc1c(NC(=O)OC[C@@H]2COCCN2)cn2ncnc(Nc3ccc4c(cnn4Cc4cccc(F)c4)c3)c12 [AC-480] | > 30 µM (inactive) | > 30 µM (inactive) | > 30 µM (inactive) | > 30 µM (inactive) | > 30 µM (inactive) | > 30 µM (inactive) | > 30 µM (inactive) | > 30 µM (inactive)
Cn1cc(-c2[nH]c3cc(NC(=O)[C@H](N)C4CCCCC4)cc4c3c2C=NNC4=O)cn1 | > 30 µM (inactive) | 1.11 µM (active) | > 30 µM (inactive) | > 30 µM (inactive) | 0.047 µM (active) | > 30 µM (inactive) | > 30 µM (inactive) | > 30 µM (inactive)
Cc1cc(Nc2nc(N[C@@H](C)c3ncc(F)cn3)ncc2Cl)n[nH]1 [AZD-1480] | > 30 µM (inactive) | > 30 µM (inactive) | > 30 µM (inactive) | > 30 µM (inactive) | > 30 µM (inactive) | > 30 µM (inactive) | 1.26 µM (active) | > 30 µM (inactive)
C[C@]1(O)C[C@@H](c2nc(-c3ccc4ccc(-c5ccccc5)nc4c3)c3c(N)nccn32)C1 [LINSITINIB] | > 30 µM (inactive) | > 30 µM (inactive) | > 30 µM (inactive) | > 30 µM (inactive) | > 30 µM (inactive) | > 30 µM (inactive) | > 30 µM (inactive) | > 30 µM (inactive)
COc1cc2ncnc(Nc3ccc(O)cc3)c2cc1OC [WHI-P131] | > 30 µM (inactive) | > 30 µM (inactive) | > 30 µM (inactive) | > 30 µM (inactive) | > 30 µM (inactive) | > 30 µM (inactive) | > 30 µM (inactive) | > 30 µM (inactive)
Cn1c(=O)n(-c2ccc(C(C)(C)C#N)cc2)c2c3cc(-c4cnc5ccccc5c4)ccc3ncc21 [DACTOLISIB] | > 30 µM (inactive) | > 30 µM (inactive) | > 30 µM (inactive) | > 30 µM (inactive) | > 30 µM (inactive) | > 30 µM (inactive) | > 30 µM (inactive) | > 30 µM (inactive)
COc1cc(F)c(F)c(Nc2ccc(I)cc2F)c1NS(=O)(=O)C1(C[C@H](O)CO)CC1 [REFAMETINIB] | > 30 µM (inactive) | > 30 µM (inactive) | > 30 µM (inactive) | > 30 µM (inactive) | > 30 µM (inactive) | > 30 µM (inactive) | > 30 µM (inactive) | > 30 µM (inactive)
CN1CCN(c2nc(C3=C(c4c[nH]c5ccccc45)C(=O)NC3=O)c3ccccc3n2)CC1 [SOTRASTAURIN] | > 30 µM (inactive) | > 30 µM (inactive) | > 30 µM (inactive) | > 30 µM (inactive) | > 30 µM (inactive) | > 30 µM (inactive) | > 30 µM (inactive) | > 30 µM (inactive)
CC(C)CC(=O)Nc1[nH]nc2c1CN(C(=O)C1CCN(C)CC1)C2(C)C [PHA-793887] | > 30 µM (inactive) | > 30 µM (inactive) | > 30 µM (inactive) | > 30 µM (inactive) | > 30 µM (inactive) | 2.18 µM (active) | > 30 µM (inactive) | 0.175 µM
C=CCn1c(=O)c2cnc(Nc3ccc(N4CCN(C)CC4)cc3)nc2n1-c1cccc(C(C)(C)O)n1 [ADAVOSERTIB] | > 30 µM (inactive) | 1.91 µM (active) | > 30 µM (inactive) | > 30 µM (inactive) | > 30 µM (inactive) | > 30 µM (inactive) | > 30 µM (inactive) | > 30 µM (inactive)
CCN1CCN(Cc2ccc(Nc3ncc(F)c(-c4cc(F)c5nc(C)n(C(C)C)c5c4)n3)nc2)CC1 [ABEMACICLIB] | > 30 µM (inactive) | > 30 µM (inactive) | > 30 µM (inactive) | – | > 30 µM (inactive) | 0.007 µM (active) | > 30 µM (inactive) | > 30 µM (inactive)
